Reference: PubChem BioAssay AID270 (DTP/NCI, 2004)
Values joined by “and” are separate entries in the source; they are usually repeats but may differ in a detail not shown here. Equal entries are not always repeated. Inconclusive results are not listed.

Test system: BDF1 mice, s.c. Lewis lung carcinoma, T/C %
Assay: NCI In Vivo Anticancer Drug Screen. Data for tumor model Lewis Lung Carcinoma (subcutaneous) in B6D2F1 (BDF1) mice
How it was run: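 First, mice carry a transplantable tumor. Next, groups receive either compound or vehicle. Finally, survival or tumor dimensions in the dosed animals are divided by the corresponding control figure.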

[1] = endpoint: median survival time, dose: 100.0 mg/kg/injection, schedule: Q01DX009 (ip), vehicle: Klucel (hydroxypropylcellulose) (HPC), higher = longer survival
[2] = endpoint: median survival time, dose: 200.0 mg/kg/injection, schedule: Q01DX009 (ip), vehicle: Klucel (hydroxypropylcellulose) (HPC), higher = longer survival
[3] = endpoint: median survival time, dose: 50.0 mg/kg/injection, schedule: Q01DX009 (ip), vehicle: Klucel (hydroxypropylcellulose) (HPC), higher = longer survival

NC(=O)c1[nH]nc(C2OC(CO)C(O)C2O)c1O (stereo unspecified) was tested, and the T/C (endpoint: median survival time, dose: 1.73 mg/kg/injection, schedule: Q04DX003 (iv), vehicle: saline, higher = longer survival) was 191 % of control, the T/C (endpoint: median survival time, dose: 5.2 mg/kg/injection, schedule: Q04DX003 (iv), vehicle: saline, higher = longer survival) was 117 % of control and the T/C (endpoint: median survival time, dose: 15.6 mg/kg/injection, schedule: Q04DX003 (iv), vehicle: saline, higher = longer survival) was 69 % of control.

In the case of COC1=CC(=O)N(C(=O)C2CSC(C(CO)NC(=O)c3csc(/C=N/O)n3)=N2)C1 (stereo unspecified), the T/C [1] is reported as 92 % of control and the T/C [2] is reported as 92 % of control.

With C[C@]12C=CC(=O)C=C1CC[C@@H]1[C@@H]2C(=O)C[C@@]2(C)[C@H]1CC[C@]2(O)C(=O)CO the T/C (endpoint: mean tumor weight, dose: 6.25 mg/kg/injection, schedule: Q01DX011 (sc), vehicle: steriod suspending solution, higher = larger tumour) was 53 % of control, the T/C (endpoint: mean tumor weight, dose: 12.5 mg/kg/injection, schedule: Q01DX011 (sc), vehicle: steriod suspending solution, higher = larger tumour) was 36 % of control and the T/C (endpoint: mean tumor weight, dose: 25.0 mg/kg/injection, schedule: Q01DX011 (sc), vehicle: steriod suspending solution, higher = larger tumour) was 22 % of control. The T/C (endpoint: mean tumor weight, dose: 50.0 mg/kg/injection, schedule: Q01DX011 (sc), vehicle: steriod suspending solution, higher = larger tumour) was 25 % of control, the T/C [3] was 88 % of control and the T/C (endpoint: median survival time, dose: 50.0 mg/kg/injection, schedule: Q01DX009 (ip), vehicle: saline with Tween-80, higher = longer survival) was 102 % of control and 122 % of control. For the same compound, the T/C [1] was 107 % of control and the T/C (endpoint: median tumor weight (est.), dose: 50.0 mg/kg/injection, schedule: Q01DX009 (ip), vehicle: saline with Tween-80, higher = larger tumour) was 70 % of control.

Nc1ccc2ccccc2c1N=Nc1ccccc1 was tested, and the T/C (endpoint: mean tumor weight, dose: 500.0 mg/kg/injection, schedule: Q01DX011 (ip), vehicle: other, higher = larger tumour) was 105 % of control, the T/C [3] was 104 % of control and the T/C [1] was 104 % of control. The T/C [2] was 98 % of control and the T/C (endpoint: median survival time, dose: 400.0 mg/kg/injection, schedule: Q01DX009 (ip), vehicle: Klucel (hydroxypropylcellulose) (HPC), higher = longer survival) was 95 % of control.

With CC(=O)c1c(O)c(C)c(O)c2c1OC1=CC(=O)C(C(C)=O)C(=O)C12C (stereo unspecified) the T/C (endpoint: median survival time, dose: 6.25 mg/kg/injection, schedule: Q01DX009 (ip), vehicle: gum acacia, higher = longer survival) was 111 % of control, the T/C (endpoint: median survival time, dose: 12.5 mg/kg/injection, schedule: Q01DX009 (ip), vehicle: gum acacia, higher = longer survival) was 95 % of control and 110 % of control and the T/C (endpoint: median survival time, dose: 25.0 mg/kg/injection, schedule: Q01DX009 (ip), vehicle: gum acacia, higher = longer survival) was 101 % of control and 102 % of control and 123 % of control. For the same compound, the T/C (endpoint: median survival time, dose: 50.0 mg/kg/injection, schedule: Q01DX009 (ip), vehicle: gum acacia, higher = longer survival) was 101 % of control and 113 % of control and 115 % of control, the T/C (endpoint: median survival time, dose: 100.0 mg/kg/injection, schedule: Q01DX009 (ip), vehicle: gum acacia, higher = longer survival) was 98 % of control and 116 % of control and 123 % of control and the T/C (endpoint: median survival time, dose: 200.0 mg/kg/injection, schedule: Q01DX009 (ip), vehicle: gum acacia, higher = longer survival) was 106 % of control.

For COc1ccc(CN2CCCN(Cc3ccc(OC)cc3)C2c2ccc(Cl)cc2Cl)cc1, the T/C (endpoint: mean tumor weight, dose: 74.0 mg/kg/injection, schedule: Q01DX011 (ip), vehicle: other, higher = larger tumour) was 119 % of control and the T/C (endpoint: mean tumor weight, dose: 166.0 mg/kg/injection, schedule: Q01DX011 (ip), vehicle: other, higher = larger tumour) was 111 % of control.

In the case of COC1OC(CNC(=O)N(C)N=O)C(O)C(O)C1O (stereo unspecified), the T/C (endpoint: median survival time, dose: 50.0 mg/kg/injection, schedule: Q01DX009 (ip), vehicle: saline, higher = longer survival) is reported as 102 % of control, the T/C (endpoint: median survival time, dose: 100.0 mg/kg/injection, schedule: Q01DX009 (ip), vehicle: saline, higher = longer survival) is reported as 112 % of control and the T/C (endpoint: median survival time, dose: 200.0 mg/kg/injection, schedule: Q01DX009 (ip), vehicle: saline, higher = longer survival) is reported as 97 % of control.

For CN(C1=NS(=O)(=O)N=C(N(C)c2ccccc2)O1)c1ccccc1, the T/C (endpoint: median survival time, dose: 14.37 mg/kg/injection, schedule: Q01DX009 (ip), vehicle: Klucel (hydroxypropylcellulose) (HPC), higher = longer survival) was 111 % of control, the T/C (endpoint: median survival time, dose: 28.75 mg/kg/injection, schedule: Q01DX009 (ip), vehicle: Klucel (hydroxypropylcellulose) (HPC), higher = longer survival) was 104 % of control and the T/C (endpoint: median survival time, dose: 57.5 mg/kg/injection, schedule: Q01DX009 (ip), vehicle: Klucel (hydroxypropylcellulose) (HPC), higher = longer survival) was 103 % of control. For the same compound, the T/C (endpoint: median survival time, dose: 115.0 mg/kg/injection, schedule: Q01DX009 (ip), vehicle: Klucel (hydroxypropylcellulose) (HPC), higher = longer survival) was 100 % of control and the T/C (endpoint: median survival time, dose: 230.0 mg/kg/injection, schedule: Q01DX009 (ip), vehicle: Klucel (hydroxypropylcellulose) (HPC), higher = longer survival) was 96 % of control.

For COC12C(COC(N)=O)C3=C(C(=O)C(C)=C(N)C3=O)N1CC1C2N1C (stereo unspecified), the T/C (endpoint: median survival time, dose: 2.0 mg/kg/injection, schedule: Q01DX011 (ip), vehicle: other, higher = longer survival) was 98 % of control and the T/C (endpoint: median survival time, dose: 4.0 mg/kg/injection, schedule: Q01DX011 (ip), vehicle: other, higher = longer survival) was 96 % of control.
